In one experiment the target is TmRibU (Thermotoga maritima, UniProt Q9X1G6, N123A). The experiment can be described thus: thermal melting by analytical SEC peak height. It is filed as binding. Conditions: NG detergent; difference of mutant to wild-type complex, no apo reference.
The target of a further experiment is TmRibUΔCt (Thermotoga maritima, UniProt Q9X1G6). The experiment can be described thus: X-ray crystallography, […] Å. It counts as binding. The following applies: co-purified substrate; extracellular pocket of TM4-6 and Loop1-2.
TmRibUΔCt, sequence (Q9X1G6 1-173, stated change not applied): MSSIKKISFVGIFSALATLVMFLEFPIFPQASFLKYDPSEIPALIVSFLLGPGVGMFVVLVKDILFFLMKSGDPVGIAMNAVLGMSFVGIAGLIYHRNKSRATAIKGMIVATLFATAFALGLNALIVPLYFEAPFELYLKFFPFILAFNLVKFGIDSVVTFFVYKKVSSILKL

TmRibU, sequence (Q9X1G6 whole entry N123A): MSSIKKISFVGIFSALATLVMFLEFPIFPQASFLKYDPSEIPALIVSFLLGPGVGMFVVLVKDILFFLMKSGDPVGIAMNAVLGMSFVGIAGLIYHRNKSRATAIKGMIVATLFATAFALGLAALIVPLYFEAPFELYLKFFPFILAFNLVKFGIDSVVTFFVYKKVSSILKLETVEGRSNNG

On to `Cc1cc2nc3c(=O)[nH]c(=O)nc-3n(C[C@H](O)[C@H](O)[C@H](O)CO)c2cc1C` [riboflavin], for which the “decrease of Tm of riboflavin complex vs WT” value on TmRibU was ~ 23 °C. In addition, on TmRibUΔCt, the “X-ray crystallography, 2.6 Å (also 3.2 and 3.4 Å)” value is on record as “we determined the crystal structure of riboflavin-bound TmRibU”.

(Values after PMC4975955 (Journal of molecular biology, 2016).)
